“Also recorded” adds a separate entry of the source.
Tests used:
[1] = test system: patients with non-infectious uveitis; test: Phase 1/2 open-label safety and tolerability study of TA administered to the suprachoroidal space; format: in vivo, human
Experimental: A clinical trial was designed to evaluate the safety and tolerability of a single injection of TA (triamcinolone acetonide administered as TRIESCENCE™) into the SCS in patients diagnosed with non-infectious uveitis.
Each mL of the sterile, aqueous suspension of TRIESENCE™ provides […] of triamcinolone acetonide, with sodium chloride for isotonicity, 0.5% (w/v) carboxymethylcellulose sodium and 0.015% polysorbate 80. It also contains potassium chloride, calcium chloride (dihydrate), magnesium chloride (hexahydrate), sodium acetate (trihydrate), sodium citrate (dihydrate) and water for injection. Sodium hydroxide and hydrochloric acid may be present to adjust pH to a target value 6-7.5.
The primary purpose of this trial was to evaluate the overall safety and tolerability of treating uveitis patients (non-infectious uveitis—intermediate, posterior or pan-uveitis) by administering a triamcinolone into the SCS via a single suprachoroidal injection. Eligibility criteria include adult patients with non-infectious uveitis experiencing either macular edema or vitreous haze, a common complication of uveitis. This was in order to determine whether SCS administration of TA could improve patient vision through reducing the effects of either condition. For inclusion in the trial, patients must have IOP (intra-ocular pressure) of no greater than 22 mmHg
Each patient enrolled received a single SCS microinjection of 4.0 mg (100 μL) of triamcinolone acetonide of day 1. Patients returned for a follow-up examination on the day after the injection and then for eight additional evaluations at weeks 1, 2, 4, 8, 12, 16, 20 and 26 following the treatment. Patients may receive other treatment at any time during the trial with any accepted therapy based on their physician's best medical judgment, if their condition deteriorates or if the physician otherwise determines it to be advisable. In the event a patient received other treatment, the patient was followed for the duration of the trial for safety purposes, but efficacy measures were no longer considered thereafter.
Patients received the single SCS injection 4 mm posterior to limbus and received an ultrasound assessment of scleral thickness immediately after injection.
Endpoints. The main safety endpoint was changes from baseline in intraocular pressure (TOP). Also assessed was an efficacy endpoint relating to changes in best-corrected visual acuity, or BCVA, as well as changes in excess retinal thickness.

patients = details: in vivo; cited from earlier work
[2] = test system: porcine model of acute posterior uveitis (intravitreal LPS); test: Porcine model of acute uveitis: modified Hackett-McDonald ocular inflammation score; format: in vivo, pigs
[3] = test system: porcine model of acute posterior uveitis (intravitreal LPS); test: Porcine model of acute uveitis: intraocular pressure (TonoVet); format: in vivo, pigs; details: Day 3, low dose 0.1 mg/kg/day PO, P<0.0065
Experimental: (§1) Twenty four hours after the induction of acute uveitis by intraocular lipopolysaccharide (LPS) injection (Day 0) into the vitreous, 50 μL of balanced salt solution (BSS, Group 1) or triamcinolone (CLS-TA) (2 mg, Group 3) was injected into the suprachoroidal space (SCS). In Groups 2 and 4, oral prednisone (1 mg/kg/day, Group 2 or 0.1 mg/kg/day, Group 4) was dosed on Day 0, and repeated every 24 hours until euthanasia on day 3. Eyes were examined every 24 hours, which included measuring inflammation scores (Modified Hackett-McDonald) and intraocular pressure (TOP) until euthanasia 3 days after initiation of treatment. Safety assessments and histopathology were performed on all eyes. Electroretinography and wide-field fundus photography was performed at −24 hours, time 0 (before treatment) and on Day 3. Histopathology was performed on eyes after euthanasia.
Treatment. […]
Intraocular Pressure. Intraocular pressure (TOP) was measured with the pigs awake and hand restrained at −144, −96, −24, 0, 24, 48, and 72 hours (see FIG. 1) using a TonoVet Tonometer (iCare, Finland). […] After the six measurements, the mean IOP was shown on the display providing the IOP that was recorded.
Data and Statistical Analysis. […] Results and probabilities were calculated using computerized statistical software (JMP 10, SAS Inc. Cary, N.C.).

[4] = test system: porcine model of acute posterior uveitis (intravitreal LPS); test: Porcine model of acute uveitis: wide-field ocular fundus digital photography; format: in vivo, pigs; details: 72 hours
Experimental: as §1, with “-24” for “−24”, “euthanasia. Wide-field Ocular Fundus Digital Photography. With the pigs anesthetized at times -24, 0 and 72 hours, and pupils dilated with tropicamide 1%, the ocular fundus was photographed with standardized illumination and focus using a wide-field digital imaging system ([…], Clarity Medical Systems, Pleasanton, Calif.).” for “euthanasia.”

[5] = test system: porcine model of acute posterior uveitis (intravitreal LPS); test: Porcine model of acute uveitis: ocular histopathology; format: in vivo, pigs

SMILES	patients with meaningful improvements in BCVA ([1]; 26 weeks after single SCS injection of TA on Day 1)	gain in BCVA ([1]; 26 weeks after single SCS injection, four of the eight patients)	decrease in retinal thickness (OCT), SCS injection compared to sub-tenon injection ([1]; one patient, bilateral uveitis, 4 mg TA SCS in one eye, 20 mg TA sub-tenon in the other eye)	OCT appearance of eye treated with TA via suprachoroidal injection vs Ozurdex treated eye ([1]; one patient, bilateral uveitis, four to six weeks after treatment)	average reduction in CME ([1]; seven patients, single TA injection into the SCS)	deaths ([1]; single SCS injection 4.0 mg (100 μL) TA, eight patients)	mean reduction in macular edema (retinal thickness) ([1]; week 26, single TA injection into the SCS, seven patients with macular edema)	patients with cataracts and increases in IOP levels (patients)	mean cumulative inflammation score compared with Group 1 (BSS) ([2]; Day 3 (72 hours), high dose 1 mg/kg/day PO, P<0.034)	mean cumulative inflammation score compared with saline treated eyes ([2]; any treatment time, low dose 0.1 mg/kg/day PO)	reduction of ocular inflammation relative to low dose prednisone ([2]; high dose 1 mg/kg/day PO)	time to reduction of inflammation ([2]; high dose 1 mg/kg/day PO)	mean IOP compared with the other groups [3]	wide-field fundus images ([4]; high dose 1 mg/kg/day PO)	wide-field fundus images ([4]; low dose 0.1 mg/kg/day PO)	mean histologic score of the posterior segment compared with low dose oral prednisone (Group 4) ([5]; high dose 1 mg/kg/day PO, P<0.013)	mean histologic score of the anterior segment compared with saline (Group 1) ([5]; oral 0.1 mg/kg/day (Group 4))	mean histologic score of the anterior segment compared with saline (Group 1) ([5]; oral 1 mg/kg/day (Group 2))
CC1(C)O[C@@H]2C[C@H]3[C@@H]4CCC5=CC(=O)C=C[C@]5(C)[C@@]4(F)[C@@H](O)C[C@]3(C)[C@]2(C(=O)CO)O1 [TA, triamcinolone acetonide]	Four of the eight patients	about 3 lines	greater decrease in retinal thickness	looks better than the intravitreally Ozurdex treated eye	about 20%	No deaths	over 100 microns	20-60%										
C[C@]12C=CC(=O)C=C1CC[C@@H]1[C@@H]2C(=O)C[C@@]2(C)[C@H]1CC[C@]2(O)C(=O)CO [prednisone]									significantly lower	not significantly different than saline treated eyes	more effective than low dose prednisone	three days	significantly lower than Groups 1, 2, and 3; also recorded: significantly lower IOP than all other groups	near pre-treatment appearance	only slightly improved over vehicle treated eyes	lower than the mean score of eyes treated with low dose oral prednisone	not significantly different than Group 1	not significantly different than Group 1
